This is an account of results in ChEMBL document CHEMBL1128034, “Structure activity of topoisomerase i poisons related to hoechst 33342” (Bioorg Med Chem Lett, 1994).

A value given as a limit tells only on which side of the number the result lay.

What is called IC50 is the concentration that gives 50% inhibition. Low values mean higher potency, high ones lower potency.

Format in all cases: functional, cell-based
In assay [1] the test system is RPMI 8402. The assay is described as follows: Cytotoxicity towards camptothecin resistant CPT-K5 cell line in human.
Assay [2] deals with PC-3. The experiment in a line: Cytotoxicity towards prostatic carcinoma (PC3) cells in human; Not active.
Assay [3] has as its system RPMI 8402. The experiment in a line: Cytotoxicity towards lymphoblastoma (RPMI 8402) cells in human.
In assay [4] the test system is SK-MEL. The assay is described as follows: Cytotoxicity towards melanoma (SK-Mel) cells in human; Not active.
Assay [5] concerns SK-MEL. The experiment in a line: Cytotoxicity towards melanoma (SK-Mel) cells in human.
Assay [6] deals with PC-3. The assay is described as follows: Cytotoxicity towards prostatic carcinoma (PC3) cells in human.

Take `COc1ccc(-c2nc3cc(-c4nc5cc([N+](=O)[O-])ccc5[nH]4)ccc3[nH]2)cc1`: the IC50 in the assay with RPMI 8402 [1] is 3.9 µM; in the assay on PC-3 [2], “Not Active”; in the assay on RPMI 8402 [3], 0.65 µM; in the assay on SK-MEL [4], “Not Active”.

As for `COc1ccc(-c2nc3cc(-c4nc5cc(N(C)C)ccc5[nH]4)ccc3[nH]2)cc1`, the IC50 in the assay on RPMI 8402 [1] amounted to 0.65 µM; in the assay on SK-MEL [5], 26 µM; in the assay on RPMI 8402 [3] it was 0.13 µM; in the assay with PC-3 [6] it was 4.9 µM.

As to `COc1ccc(-c2nc3cc(-c4nc5cc(N6CCN(C)CC6)ccc5[nH]4)ccc3[nH]2)cc1`, the IC50 with RPMI 8402 [1] is 0.57 µM; in the assay on SK-MEL [5], 1.1 µM; in the assay on RPMI 8402 [3], under 0.05 µM; with PC-3 [6] it was 0.84 µM.

Turning to `COc1ccc(-c2nc3cc(-c4nc5cc(OC6CCN(C)CC6)ccc5[nH]4)ccc3[nH]2)cc1`, the IC50 with RPMI 8402 [1] was 0.44 µM; with SK-MEL [5], 2 µM; in the assay with RPMI 8402 [3], under 0.04 µM; with PC-3 [6], 0.38 µM.

Consider `COc1ccc(-c2nc3cc(-c4nc5cc(CCN(C)C)ccc5[nH]4)ccc3[nH]2)cc1`, for which the IC50 in the assay with RPMI 8402 [1] was determined as 6.1 µM; in the assay with SK-MEL [5], 8.5 µM; in the assay with RPMI 8402 [3] it was 0.61 µM; in the assay with PC-3 [6], 43 µM.

Regarding `COc1ccc(-c2nc3cc(-c4nc5cc(N)ccc5[nH]4)ccc3[nH]2)cc1`, the IC50 with RPMI 8402 [1] was determined as 14 µM; in the assay on SK-MEL [5], 6.2 µM; with RPMI 8402 [3] it was 1.7 µM; with PC-3 [6] it was 19 µM.

Take `COc1ccc(-c2nc3cc(-c4nc5cc(CN(C)C)ccc5[nH]4)ccc3[nH]2)cc1`: the IC50 in the assay on RPMI 8402 [1] was 6.3 µM; in the assay on SK-MEL [5] it was 10 µM; with RPMI 8402 [3], 0.38 µM; in the assay on PC-3 [6] it was 52 µM.

In the case of `COc1ccc(-c2nc3cc(-c4nc5cc(CCCN(C)C)ccc5[nH]4)ccc3[nH]2)cc1`, the IC50 in the assay with RPMI 8402 [1] was found to be 7.1 µM; in the assay on SK-MEL [5] it was 10 µM; in the assay with RPMI 8402 [3], 1.2 µM; in the assay on PC-3 [6] it was 28 µM.

As to `CCOc1ccc(-c2nc3cc(-c4nc5cc(N6CCN(C)CC6)ccc5[nH]4)ccc3[nH]2)cc1`, the IC50 came to 0.5 µM in the assay with RPMI 8402 [1], 1.6 µM in the assay with SK-MEL [5], 0.005 µM in the assay on RPMI 8402 [3] and 0.71 µM in the assay on PC-3 [6].
